# Experimental data as given in patent US9566265B2, “Carbazole compounds and therapeutic uses of the compounds” (Incuron, LLC, priority 2008, dated 2017).
# Where two headings read alike, the source gives them in different places.
# Key:
# Bloodstream T. brucei = experiment: T. brucei bloodstream form in vitro killing; type: cell-based, Trypanosoma brucei
# Description: Preliminary T. brucei inactivation experiments were performed in vitro. The life cycle of T. brucei involves a “procyclic” developmental stage in a tsetse fly, and a “bloodstream” form in humans. All studies were performed with the bloodstream stage of the parasite, because it is the disease-causing developmental stage.
# Suramin, a conventional anti-HAT drug, was used as a positive control.
# Bloodstream T. brucei was seeded (3×10^3 cells/mL) in 24-well (500 uL of the media per well) plate. […] Control cultures received equal volumes of DMSO.
# C. albicans = experiment: microbe, parasite or virus in culture; type: cell-based; conditions: Candida albicans
# Description: (§1) Candida spp. strains: 20 Candida spp. clinical isolates and one laboratory control strain (C. albicans SC5314) was used in the study. In the collection were included:
# 5 C. albicans isolates, two wild type strain (SC5314 and ATCC 36082), one echinocandin resistant isolate (M205) (6), and two fluconazole resistant clinical isolates (3795 and 3184) (7).
# C. krusei = experiment: in vitro susceptibility CLSI M27A3, MIC; type: cell-based; conditions: Pichia kudriavzevii, ATCC6258; strain ATCC 6258, WT, Susceptible (naturally fluconazole resistant); read-out: MIC* (48 hs)
# C. tropicalis = experiment: microbe, parasite or virus in culture; type: cell-based; conditions: Candida tropicalis
# Description: as §1
# 2 C. tropicalis strains, one ATCC control strain (ATCC 750), and one echinocandin cross-resistant (T3) (11).
# C. lipolytica = experiment: in vitro susceptibility CLSI M27A3, MIC; type: cell-based; conditions: Yarrowia lipolytica, strain M159, WT, Susceptible
# Description: (§2) Other Candida spp. and genera: 1 C. rugosa (M83), 1 C. lipolytica (M159), C. lusitaniae (200450), 1 Cryptococcus neoformans (499), and 1 Debaryomyces hansenii.
# C. lusitaniae = experiment: in vitro susceptibility CLSI M27A3, MIC; type: cell-based; conditions: Clavispora lusitaniae, strain 200450, WT, Susceptible
# Description: as §2
# C. rugosa = experiment: in vitro susceptibility CLSI M27A3, MIC; type: cell-based; conditions: Diutina rugosa, strain M83, WT, Susceptible
# Description: as §2
# Cryptococcus neoformans = experiment: in vitro susceptibility CLSI M27A3, MIC; type: cell-based; conditions: strain 499, WT, Susceptible
# Description: as §2
# Debaryomyces hansenii = experiment: in vitro susceptibility CLSI M27A3, MIC; type: cell-based; conditions: strain 20124, WT, Susceptible
# Description: as §2
# C. guilliermondii = experiment: in vitro susceptibility CLSI M27A3, MIC; type: cell-based; conditions: Meyerozyma guilliermondii, strain ATCC6260, WT, Echinocandin cross-reduced susceptibility
# Description: (§3) (12): 1 C. orthopsilosis (981224), 1 C. metapsilosis (2006-113), C. parapsilosis (ATCC 22019 CLSI control), and C. guilliermondii (ATCC6260) (13).
# C. metapsilosis = experiment: in vitro susceptibility CLSI M27A3, MIC; type: cell-based; conditions: Lodderomyces metapsilosis, strain 2006-113, WT, Echinocandin cross-reduced susceptibility
# Description: as §3
# C. orthopsilosis = experiment: in vitro susceptibility CLSI M27A3, MIC; type: cell-based; conditions: Lodderomyces orthopsilosis, strain 981224, WT, Echinocandin cross-reduced susceptibility
# Description: as §3
# C. parapsilosis = experiment: in vitro susceptibility CLSI M27A3, MIC; type: cell-based; conditions: Lodderomyces parapsilosis, ATCC22019, strain ATCC 22019, WT, Echinocandin cross-reduced susceptibility
# Description: as §3
# bacteria = experiment: antibacterial cytotoxicity assay, comparison with ampicillin control; type: cell-based
# Description: In particular, the effect of carbazole compounds of the present invention on gram positive (Bacillus subtilis) and gram negative (DH5-α) bacteria was determined by the following procedure, and is summarized in FIGS. 13A and 13B.
# Each library chemical to be tested requires 2 rows of a 96-well plate, thus 4 chemicals (e.g. W, X, Y, Z) can be tested in one plate simultaneously. In addition to test chemicals, each plate should include positive and negative controls. As positive control, ampicillin is used at 100 μg/ml. As a negative control, DMSO is used in an amount equal to the highest volume of test compound used (˜0.25% DMSO for 50 μM).
# Besides a positive control added in one concentration on each plate, the positive control of ampicillin is added to each assay run in a full concentration range (3 fold dilutions) to ensure proper and robust assay performance (estimated by comparison of dose response curves among runs).
# The average OD600 nm of the test compound solutions are compared to that of the DMSO control by dividing the average OD600 nm of the test solution by that of the DMSO control and multiplying by 100 to produce the % DMSO control (i.e. % cytotoxicity). The % DMSO control is plotted vs compound concentration to generate sigmoid shaped curves. After three runs are complete, the raw data for all three runs is used for IC50 calculations.
# [1] = tested on: human HCT-8 ileocecal adenocarcinoma xenografts
# Description: In this study, the antitumor effect and toxicity of the three carbazoles against HCT-8 and HT29 colon cancer tumors were compared with treatment beginning when the tumor size reached 150-200 mg (about 7 days after tumor transplantation).
# Eight to twelve-week-old female athymic nude mice (nu/nu, body weight 22-25 g) were obtained from Harlan Sprague Dawley Inc. (Indianapolis, Ind.) and maintained at five mice/cage with water and food ad libitum according to an institutionally approved animal protocol.
# Human ileocecal adenocarcinoma HCT-8 and colon adenocarcinoma HT-29 xenografts were used. The xenografts were initially established by injecting s.c 10^6 cultured cells and tumors were passed several generations by transplanting about 50 mg non-necrotic tumor (2-3 pieces) via a trocar from the passage tumors when the tumors reach to 1-1.5 g.
# Treatment was initiated 7 days after tumor transplantation when the tumors reached 150-200 mg. The mice in the control group received the vehicle (0.2% hydroxypropylmethylcellulose) at 200 μl per 20 g mouse body weight (same as the treatment groups). Five mice were used for each experimental group with 10 tumors (1 tumor each in the left and right side flanks).
# Two axes (mm) of tumor (L, longest axis; W, shortest axis) were measured with the aid of a Vernier caliper. Tumor weight (mg) was estimated using a formula: tumor weight=½ (L×W2). Tumor measurements were taken daily at the same time as drug treatment and 3-4 times a week of post therapy.
# The kinetics of drug-induced toxicities (body weight loss, diarrhea, and lethality) were determined daily for the first 10 days after treatment and every two days thereafter.
# Antitumor activity was assessed by maximum tumor growth inhibition (MTRI) which is the mean tumor weight of treated group (MTWTG) compared with untreated control group (MTWCG) at the same time point (MTRI=MTWTG−MTWCG)÷MTWCG×100%). The tumor doubling time (TDT) was defined as the mean time for the tumor to reach twice its initial weight. Tumor response was expressed as partial tumor response (PR) when tumor weight was reduced at least 50% of the initial tumor size and complete tumor response (CR) was defined as the inability to detect tumor upon palpation at the initial site of tumor appearance.
# in vivo = conditions: nude, mouse, po
# Description: Drug doses and schedule. […] Treatment was initiated 7 days after tumor transplantation when the tumors reached 150-200 mg. The mice in the control group received the vehicle (0.2% hydroxypropylmethylcellulose) at 200 μl per 20 g mouse body weight (same as the treatment groups). Five mice were used for each experimental group with 10 tumors (1 tumor each in the left and right side flanks).
# Maximum Tolerated Dose (MTD) and toxicity evaluation. […] The kinetics of drug-induced toxicities (body weight loss, diarrhea, and lethality) were determined daily for the first 10 days after treatment and every two days thereafter.
structure (smiles),measurement,setting,value
CCN(CC)CCn1c2ccc3c(c2c2c4c(ccc21)C(=O)CC4)CCC3=O [Example 15],elimination of parasites,"Bloodstream T. brucei; 48 hrs, up to 200 nM Example 7, 20 nM Example 13, 3 nM Example 15",completely eliminated T. brucei
same,IC50,"Bloodstream T. brucei; Trypanosoma brucei, read-out: IC50 (concentration that killed 50% of the parasites), bloodstream stage, 48 hrs of culture",~500 pM
same,MIC,"C. albicans; read-out: MIC* (48 hs), strain 3184, CDR1 overexpression, Fluconazole- resistant",0.66 µM
same,MIC,"C. albicans; strain ATCC36082, WT, Susceptible, read-out: MIC* (24 hs)",0.04 µM
same,MIC,"C. albicans; strain ATCC36082, WT, Susceptible, read-out: MIC* (48 hs)",0.04 µM
same,MIC,"C. albicans; strain SC5314, WT, Susceptible, read-out: MIC* (24 hs)",0.04 µM
same,MIC,"C. albicans; strain SC5314, WT, Susceptible, read-out: MIC* (48 hs)",0.08 µM
same,MIC,C. krusei,0.66 µM
same,MIC,"C. tropicalis; strain ATCC750, WT, Susceptible, read-out: MIC* (24 hs)",0.08 µM
same,MIC,"C. tropicalis; strain ATCC750, WT, Susceptible, read-out: MIC* (48 hs)",0.16 µM
same,MIC,"C. tropicalis; strain T3, Fks1pS645S/P, Echinocandin cross-resistant, read-out: MIC* (24 hs)",0.04 µM
same,MIC,"C. tropicalis; strain T3, Fks1pS645S/P, Echinocandin cross-resistant, read-out: MIC* (48 hs)",0.08 µM
same,MIC,C. lipolytica; read-out: MIC* (24 hs),0.02 µM
same,MIC,C. lipolytica; read-out: MIC* (48 hs),0.08 µM
same,MIC,C. lusitaniae; read-out: MIC* (24 hs),0.04 µM
same,MIC,C. lusitaniae; read-out: MIC* (48 hs),0.16 µM
same,MIC,C. rugosa; read-out: MIC* (24 hs),0.16 µM
same,MIC,C. rugosa; read-out: MIC* (48 hs),0.66 µM
same,MIC,Cryptococcus neoformans; read-out: MIC* (24 hs),0.02 µM
same,MIC,Cryptococcus neoformans; read-out: MIC* (48 hs),0.08 µM
same,MIC,Debaryomyces hansenii; read-out: MIC* (24 hs),0.16 µM
same,MIC,Debaryomyces hansenii; read-out: MIC* (48 hs),0.16 µM
same,MIC,C. guilliermondii; read-out: MIC* (24 hs),0.08 µM
same,MIC,C. guilliermondii; read-out: MIC* (48 hs),0.16 µM
same,MIC,C. metapsilosis; read-out: MIC* (24 hs),0.16 µM
same,MIC,C. metapsilosis; read-out: MIC* (48 hs),0.16 µM
same,MIC,C. orthopsilosis; read-out: MIC* (24 hs),0.16 µM
same,MIC,C. orthopsilosis; read-out: MIC* (48 hs),0.16 µM
same,MIC,C. parapsilosis; read-out: MIC* (24 hs),0.08 µM
same,MIC,C. parapsilosis; read-out: MIC* (48 hs),0.08 µM
same,effectiveness against bacteria compared with the ampicillin control,bacteria,more effective
same,Antitumor Activity MTGI (%),"[1]; p.o. at MTD, 5 days on/2 days off per week, Example 15 5, Example 7 30, Example 13 25 mg/kg/d",40.0 ± 18.6%
same,Toxicity (%) lethality,[1]; same,0%
same,CR (%),"[1]; same, complete tumor response",0%
same,Toxicity (%) MWL,"[1]; same, maximum weight loss of pretreatment body weight",10.0 ± 3.8%
same,PR (%),"[1]; same, partial tumor response",0%
same,Antitumor Activity TDT,"[1]; same, tumor doubling time",7.5 ± 3.5 days
same,delay of tumor growth compared to the vehicle control (double time 4.8 days),[1]; text b677,57%
same,MTD at 4 weeks,in vivo,5 mg/kg/day
